Experimental data reported in ChEMBL document CHEMBL1201862, “PubChem BioAssay data set” (2004).
Each block holds one compound with its values, some of them ahead of it. Calls of active or inactive are those of the source.

Assays:
[1] = molecular target: COUP transcription factor 2 (Homo sapiens, UniProt P24468); assay: Luminescence-based cell-based high throughput dose response assay to identify inhibitors of COUP-TFII (NR2F2).; assay type: functional;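 note: HEK293 cells transiently cotransfected with COUP-TFII expression vector and reporter; luciferase reporter luminescence driven by COUP-TFII from the pX2-168 reporter plasmid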
Sequence of COUP transcription factor 2 (P24468 whole entry): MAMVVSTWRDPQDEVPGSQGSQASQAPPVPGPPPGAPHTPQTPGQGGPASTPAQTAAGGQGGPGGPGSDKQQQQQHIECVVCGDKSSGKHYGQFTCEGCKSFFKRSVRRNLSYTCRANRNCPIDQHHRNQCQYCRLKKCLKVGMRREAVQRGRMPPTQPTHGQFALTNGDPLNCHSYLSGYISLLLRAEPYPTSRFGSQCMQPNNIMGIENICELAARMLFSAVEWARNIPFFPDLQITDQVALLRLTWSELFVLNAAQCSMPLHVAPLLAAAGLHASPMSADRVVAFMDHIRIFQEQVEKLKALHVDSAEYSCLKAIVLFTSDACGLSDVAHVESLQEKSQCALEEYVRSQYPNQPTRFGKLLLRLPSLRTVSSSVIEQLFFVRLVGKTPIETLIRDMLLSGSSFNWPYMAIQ

Protein Tat = Protein Tat (Human immunodeficiency virus type 1 group M subtype B (isolate HXB2)(HIV-1), UniProt P04608); assay type: functional;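 note: tat binding to TAR RNA read out by fluorescence polarization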
Sequence of Protein Tat (P04608 whole entry): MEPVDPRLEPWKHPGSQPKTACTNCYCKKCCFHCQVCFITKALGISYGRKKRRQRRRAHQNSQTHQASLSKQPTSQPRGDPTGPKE

[2] = molecular target: T1, Rac GTPase-activating protein 1 (Homo sapiens, UniProt Q9H0H5); assay: MgcRacGAP GTPase-activating activity inhibitors, confirmation, biochemical, ADP Hunter fluorescence, primary and confirmatory (AID 624330); assay type: functional
T1 sequence (Q9H0H5 whole entry): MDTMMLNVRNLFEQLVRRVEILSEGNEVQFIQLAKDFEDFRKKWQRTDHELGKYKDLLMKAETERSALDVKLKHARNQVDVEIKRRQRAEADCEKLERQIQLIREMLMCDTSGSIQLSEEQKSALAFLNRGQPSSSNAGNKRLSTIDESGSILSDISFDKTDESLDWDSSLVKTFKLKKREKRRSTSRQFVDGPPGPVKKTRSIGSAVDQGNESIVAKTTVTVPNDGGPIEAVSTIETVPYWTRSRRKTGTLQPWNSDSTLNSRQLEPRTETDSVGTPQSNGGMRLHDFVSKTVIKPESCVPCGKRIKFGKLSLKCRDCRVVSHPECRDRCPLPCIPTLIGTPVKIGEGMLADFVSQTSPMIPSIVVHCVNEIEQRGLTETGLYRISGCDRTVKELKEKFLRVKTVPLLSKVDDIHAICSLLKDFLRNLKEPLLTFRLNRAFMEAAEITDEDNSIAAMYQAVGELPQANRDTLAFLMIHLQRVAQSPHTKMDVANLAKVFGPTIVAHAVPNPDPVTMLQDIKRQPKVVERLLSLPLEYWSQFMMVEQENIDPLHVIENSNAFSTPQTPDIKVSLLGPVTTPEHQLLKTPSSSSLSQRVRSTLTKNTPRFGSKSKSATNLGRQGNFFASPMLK

Mucolipin-3 = molecular target: T2, Mucolipin-3 (Homo sapiens, UniProt Q8TDD5); assay: Dose response cell-based high-throughput screening assay for agonists of the transient receptor potential channel ML3 (TRPML3). [Related pubchem assays: 1526, 1424, 1448 ]; assay type: functional
T2 sequence (Q8TDD5 whole entry): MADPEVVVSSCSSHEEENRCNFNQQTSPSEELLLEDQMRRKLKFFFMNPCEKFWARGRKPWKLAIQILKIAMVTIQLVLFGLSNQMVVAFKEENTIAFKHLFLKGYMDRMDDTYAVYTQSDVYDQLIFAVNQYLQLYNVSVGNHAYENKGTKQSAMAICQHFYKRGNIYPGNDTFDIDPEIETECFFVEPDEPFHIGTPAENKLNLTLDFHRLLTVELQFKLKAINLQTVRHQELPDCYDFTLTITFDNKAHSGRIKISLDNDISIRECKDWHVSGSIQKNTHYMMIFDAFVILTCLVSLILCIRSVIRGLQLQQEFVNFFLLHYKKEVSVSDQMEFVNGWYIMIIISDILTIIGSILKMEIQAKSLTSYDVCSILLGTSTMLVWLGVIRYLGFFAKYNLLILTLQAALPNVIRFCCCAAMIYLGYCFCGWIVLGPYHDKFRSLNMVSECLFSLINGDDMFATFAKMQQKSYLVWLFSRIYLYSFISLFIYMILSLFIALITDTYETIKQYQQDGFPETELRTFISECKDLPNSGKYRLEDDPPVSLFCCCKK

[3] = molecular target: T3, Disintegrin and metalloproteinase domain-containing protein 17 (Homo sapiens, UniProt P78536); assay: exosite inhibitors of ADAM17, dose response, biochemical (AID 743260)
T3 sequence (P78536 whole entry, the tested form may be a part): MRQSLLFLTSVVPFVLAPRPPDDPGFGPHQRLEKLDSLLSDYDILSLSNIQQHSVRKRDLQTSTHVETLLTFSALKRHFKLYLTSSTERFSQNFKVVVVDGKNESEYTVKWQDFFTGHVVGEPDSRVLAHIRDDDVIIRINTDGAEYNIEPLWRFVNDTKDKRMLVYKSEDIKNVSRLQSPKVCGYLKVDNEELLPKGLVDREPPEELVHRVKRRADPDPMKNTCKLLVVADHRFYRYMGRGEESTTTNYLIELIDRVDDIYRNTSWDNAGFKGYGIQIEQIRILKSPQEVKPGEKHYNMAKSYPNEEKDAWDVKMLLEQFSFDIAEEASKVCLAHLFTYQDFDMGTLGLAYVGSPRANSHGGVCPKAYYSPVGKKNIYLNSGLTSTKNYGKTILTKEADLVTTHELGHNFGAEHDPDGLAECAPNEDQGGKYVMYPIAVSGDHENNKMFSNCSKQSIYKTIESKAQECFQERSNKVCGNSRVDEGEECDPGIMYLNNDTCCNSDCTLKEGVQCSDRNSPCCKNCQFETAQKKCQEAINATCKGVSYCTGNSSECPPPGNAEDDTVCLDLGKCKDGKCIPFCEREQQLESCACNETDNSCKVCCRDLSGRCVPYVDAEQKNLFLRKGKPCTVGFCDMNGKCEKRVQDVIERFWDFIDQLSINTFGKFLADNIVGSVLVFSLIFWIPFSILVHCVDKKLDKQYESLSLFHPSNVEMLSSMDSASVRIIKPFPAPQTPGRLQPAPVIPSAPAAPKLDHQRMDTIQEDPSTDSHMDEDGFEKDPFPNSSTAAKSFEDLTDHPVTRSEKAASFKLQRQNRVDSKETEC

Ion channel NompC = Ion channel NompC (Danio rerio, UniProt Q7T1G6); assay: Fluorescence counterscreen assay for TRPML3 agonists: dose response cell-based high-throughput screening assay to identify agonists of the transient receptor potential channel N1 (TRPN1). [Related pubchem assays: 1526, 1424, 1448 ]; assay type: functional
[4] = inhibitors of PGC1a acetylation in cells, dose response, cell-based, cherry-picked samples (AID 720514); assay type: functional;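 note: potency may reflect raised or lowered acetylation signal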
[5] = molecular target: T4, Microphthalmia-associated transcription factor (Homo sapiens, UniProt O75030); assay: TRPM1 promoter luciferase signal decrease, dose response, MITF inhibitor project, cell-based, SK-MEL-5, cherry-picked, set 3 (AID 493073); assay type: functional
T4 sequence (O75030 whole entry): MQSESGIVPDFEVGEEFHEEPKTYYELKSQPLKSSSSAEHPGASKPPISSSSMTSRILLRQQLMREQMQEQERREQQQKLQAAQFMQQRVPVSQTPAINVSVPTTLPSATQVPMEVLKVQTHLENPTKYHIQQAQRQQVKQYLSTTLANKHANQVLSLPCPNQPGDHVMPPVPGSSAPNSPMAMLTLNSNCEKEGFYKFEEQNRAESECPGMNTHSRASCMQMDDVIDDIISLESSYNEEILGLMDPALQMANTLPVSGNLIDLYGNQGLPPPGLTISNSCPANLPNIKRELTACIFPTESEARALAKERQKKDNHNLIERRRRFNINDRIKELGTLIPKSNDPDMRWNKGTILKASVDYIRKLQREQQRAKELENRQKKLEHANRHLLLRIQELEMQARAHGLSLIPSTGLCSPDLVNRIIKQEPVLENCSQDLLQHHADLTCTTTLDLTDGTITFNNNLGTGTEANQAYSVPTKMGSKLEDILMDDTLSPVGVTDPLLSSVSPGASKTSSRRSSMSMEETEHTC

[6] = HeLa cell cytotoxicity, dose response, cytotoxicity control for MgcRacGAP inhibitor project (AID 624300); assay type: functional
[7] = HepG2 cell cytotoxicity, dose response, cytotoxicity control, ATP luminescence, cherry-pick, activator set 2 (AID 1053143); assay type: functional, cell-based
[8] = molecular target: T5, Zinc finger protein mex-5 (Caenorhabditis elegans, UniProt Q9XUB2); assay: MEX-5/TCR-2 RNA interaction inhibitors, dose response, biochemical, C. elegans, fluorescence polarization (AID 1960)
T5 sequence (Q9XUB2 whole entry): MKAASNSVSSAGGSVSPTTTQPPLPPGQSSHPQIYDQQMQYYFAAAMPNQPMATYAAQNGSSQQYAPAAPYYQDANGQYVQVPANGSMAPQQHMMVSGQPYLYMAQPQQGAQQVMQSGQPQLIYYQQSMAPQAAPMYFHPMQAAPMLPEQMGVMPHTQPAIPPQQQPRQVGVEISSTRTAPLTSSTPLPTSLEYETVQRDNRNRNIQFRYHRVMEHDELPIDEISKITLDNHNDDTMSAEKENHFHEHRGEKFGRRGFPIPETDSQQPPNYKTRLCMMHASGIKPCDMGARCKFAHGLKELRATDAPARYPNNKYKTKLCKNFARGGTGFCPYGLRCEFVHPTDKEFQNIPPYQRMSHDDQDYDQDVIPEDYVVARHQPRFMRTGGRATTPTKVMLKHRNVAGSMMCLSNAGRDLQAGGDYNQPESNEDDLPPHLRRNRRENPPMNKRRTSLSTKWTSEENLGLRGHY

[9] = molecular target: T6, RNA-binding protein pos-1 (Caenorhabditis elegans, UniProt G5EF15); assay: inhibitors of POS-1/mex-3 RNA binding, dose response, biochemical, fluorescence polarization (AID 1964);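 note: purified POS-1 fused to maltose binding protein made in E. coli; potency of compounds blocking POS-1 binding to fluorescent RNA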
T6 sequence (G5EF15 whole entry): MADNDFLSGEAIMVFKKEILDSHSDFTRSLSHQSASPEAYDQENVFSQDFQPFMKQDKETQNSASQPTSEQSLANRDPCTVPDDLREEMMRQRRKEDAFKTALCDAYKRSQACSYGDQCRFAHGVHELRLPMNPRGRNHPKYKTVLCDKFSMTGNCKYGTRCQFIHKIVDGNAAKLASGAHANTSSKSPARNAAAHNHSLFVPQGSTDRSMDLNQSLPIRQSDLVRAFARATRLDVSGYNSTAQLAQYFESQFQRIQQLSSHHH

[10] = molecular target: Dual specificity tyrosine-phosphorylation-regulated kinase 1A (Rattus norvegicus, UniProt Q63470); assay type: biochemical, Homo sapiens
Paired box protein Pax-8 = Paired box protein Pax-8 (Homo sapiens, UniProt Q06710); assay: inhibitors of PAX8-driven TPO luciferase reporter, dose response, RMG-I cells, cherry-pick (AID 687027); assay type: functional, cell-based;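 note: luciferase reporter driven by Pax8 target thyroperoxidase promoter measured by SteadyGlo luminescence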
Sequence of Paired box protein Pax-8 (Q06710 whole entry, the tested form may be a part): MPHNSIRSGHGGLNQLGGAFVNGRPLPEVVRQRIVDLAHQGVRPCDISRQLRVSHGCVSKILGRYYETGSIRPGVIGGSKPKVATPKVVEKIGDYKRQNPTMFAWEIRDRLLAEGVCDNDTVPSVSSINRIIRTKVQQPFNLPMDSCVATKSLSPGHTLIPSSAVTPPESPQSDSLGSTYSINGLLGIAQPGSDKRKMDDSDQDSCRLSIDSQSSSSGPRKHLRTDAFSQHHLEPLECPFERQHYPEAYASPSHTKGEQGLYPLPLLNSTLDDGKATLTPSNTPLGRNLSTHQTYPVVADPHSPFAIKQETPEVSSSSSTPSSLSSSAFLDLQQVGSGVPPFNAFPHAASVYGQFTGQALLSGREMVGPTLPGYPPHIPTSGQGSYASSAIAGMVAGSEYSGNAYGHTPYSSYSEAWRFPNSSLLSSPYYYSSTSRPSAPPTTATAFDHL

[11] = molecular target: E3 ubiquitin-protein ligase UHRF1 (Homo sapiens, UniProt Q96T88); assay: Counterscreen for inhibitors of 5-meCpG-binding domain protein 2 (MBD2): TRFRET-based biochemical high throughput dose response assay to identify inhibitors of binding of ubiquitin-like with PHD and ring finger domains 1 (UHRF1) to methylated oligonucleotide.
Sequence of E3 ubiquitin-protein ligase UHRF1 (Q96T88 whole entry, the tested form may be a part): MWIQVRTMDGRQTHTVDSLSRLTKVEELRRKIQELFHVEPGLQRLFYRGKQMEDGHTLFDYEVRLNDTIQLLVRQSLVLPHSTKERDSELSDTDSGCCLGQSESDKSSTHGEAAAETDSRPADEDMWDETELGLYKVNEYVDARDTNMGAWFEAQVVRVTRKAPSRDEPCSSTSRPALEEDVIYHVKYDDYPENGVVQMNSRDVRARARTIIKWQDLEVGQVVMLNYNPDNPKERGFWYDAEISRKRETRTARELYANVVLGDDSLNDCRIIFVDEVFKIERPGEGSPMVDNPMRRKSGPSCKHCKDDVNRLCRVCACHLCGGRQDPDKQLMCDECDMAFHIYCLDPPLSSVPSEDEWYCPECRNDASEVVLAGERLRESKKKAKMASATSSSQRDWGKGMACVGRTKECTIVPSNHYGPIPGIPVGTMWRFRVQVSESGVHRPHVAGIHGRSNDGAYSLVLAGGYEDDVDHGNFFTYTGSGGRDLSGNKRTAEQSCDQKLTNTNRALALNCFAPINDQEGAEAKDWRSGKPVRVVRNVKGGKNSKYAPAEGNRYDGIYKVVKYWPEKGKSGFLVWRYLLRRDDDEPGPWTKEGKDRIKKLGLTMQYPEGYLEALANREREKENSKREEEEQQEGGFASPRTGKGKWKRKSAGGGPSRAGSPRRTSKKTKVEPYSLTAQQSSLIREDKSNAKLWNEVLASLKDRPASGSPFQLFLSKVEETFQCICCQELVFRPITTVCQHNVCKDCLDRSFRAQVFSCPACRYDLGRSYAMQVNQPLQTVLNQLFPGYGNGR

[12] = molecular target: G-protein coupled receptor 183 (Homo sapiens, UniProt P32249); assay: SAR confirmation of small molecule antagonists of the EBI2 receptor via a luminescent beta-arrestin assa.; assay type: functional
Sequence of G-protein coupled receptor 183 (P32249 whole entry): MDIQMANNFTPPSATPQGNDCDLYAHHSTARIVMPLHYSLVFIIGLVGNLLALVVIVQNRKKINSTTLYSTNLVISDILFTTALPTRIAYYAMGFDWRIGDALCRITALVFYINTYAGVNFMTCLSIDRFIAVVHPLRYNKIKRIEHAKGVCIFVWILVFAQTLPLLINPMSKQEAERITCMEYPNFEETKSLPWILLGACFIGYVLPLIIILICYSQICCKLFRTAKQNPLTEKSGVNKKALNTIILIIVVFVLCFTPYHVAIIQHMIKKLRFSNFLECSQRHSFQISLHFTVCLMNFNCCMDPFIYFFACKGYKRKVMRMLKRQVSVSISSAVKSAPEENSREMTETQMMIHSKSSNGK

HEK293 [13] = assay: cells; settings: Homo sapiens
HEK293 [14] = assay: cells; settings: Homo sapiens; remark: listed apart in the source
[15] = Counterscreen for activators of the function of SWI/SNF related, matrix associated, actin dependent regulator of chromatin, subfamily a, member 2 (SMARCA2, BRM): Luminescence-based cell-based high throughput dose response assay to identify non-selective compounds using the VP16 reporter assay.; assay type: functional
[16] = molecular target: SWI/SNF-related matrix-associated actin-dependent regulator of chromatin subfamily A member 2 (Homo sapiens, UniProt P51531); assay: Luminescence-based cell-based high throughput dose response assay to identify activators of the function of SWI/SNF related, matrix associated, actin dependent regulator of chromatin, subfamily a, member 2 (SMARCA2, BRM).; assay type: functional
Sequence of SWI/SNF-related matrix-associated actin-dependent regulator of chromatin subfamily A member 2 (P51531 whole entry): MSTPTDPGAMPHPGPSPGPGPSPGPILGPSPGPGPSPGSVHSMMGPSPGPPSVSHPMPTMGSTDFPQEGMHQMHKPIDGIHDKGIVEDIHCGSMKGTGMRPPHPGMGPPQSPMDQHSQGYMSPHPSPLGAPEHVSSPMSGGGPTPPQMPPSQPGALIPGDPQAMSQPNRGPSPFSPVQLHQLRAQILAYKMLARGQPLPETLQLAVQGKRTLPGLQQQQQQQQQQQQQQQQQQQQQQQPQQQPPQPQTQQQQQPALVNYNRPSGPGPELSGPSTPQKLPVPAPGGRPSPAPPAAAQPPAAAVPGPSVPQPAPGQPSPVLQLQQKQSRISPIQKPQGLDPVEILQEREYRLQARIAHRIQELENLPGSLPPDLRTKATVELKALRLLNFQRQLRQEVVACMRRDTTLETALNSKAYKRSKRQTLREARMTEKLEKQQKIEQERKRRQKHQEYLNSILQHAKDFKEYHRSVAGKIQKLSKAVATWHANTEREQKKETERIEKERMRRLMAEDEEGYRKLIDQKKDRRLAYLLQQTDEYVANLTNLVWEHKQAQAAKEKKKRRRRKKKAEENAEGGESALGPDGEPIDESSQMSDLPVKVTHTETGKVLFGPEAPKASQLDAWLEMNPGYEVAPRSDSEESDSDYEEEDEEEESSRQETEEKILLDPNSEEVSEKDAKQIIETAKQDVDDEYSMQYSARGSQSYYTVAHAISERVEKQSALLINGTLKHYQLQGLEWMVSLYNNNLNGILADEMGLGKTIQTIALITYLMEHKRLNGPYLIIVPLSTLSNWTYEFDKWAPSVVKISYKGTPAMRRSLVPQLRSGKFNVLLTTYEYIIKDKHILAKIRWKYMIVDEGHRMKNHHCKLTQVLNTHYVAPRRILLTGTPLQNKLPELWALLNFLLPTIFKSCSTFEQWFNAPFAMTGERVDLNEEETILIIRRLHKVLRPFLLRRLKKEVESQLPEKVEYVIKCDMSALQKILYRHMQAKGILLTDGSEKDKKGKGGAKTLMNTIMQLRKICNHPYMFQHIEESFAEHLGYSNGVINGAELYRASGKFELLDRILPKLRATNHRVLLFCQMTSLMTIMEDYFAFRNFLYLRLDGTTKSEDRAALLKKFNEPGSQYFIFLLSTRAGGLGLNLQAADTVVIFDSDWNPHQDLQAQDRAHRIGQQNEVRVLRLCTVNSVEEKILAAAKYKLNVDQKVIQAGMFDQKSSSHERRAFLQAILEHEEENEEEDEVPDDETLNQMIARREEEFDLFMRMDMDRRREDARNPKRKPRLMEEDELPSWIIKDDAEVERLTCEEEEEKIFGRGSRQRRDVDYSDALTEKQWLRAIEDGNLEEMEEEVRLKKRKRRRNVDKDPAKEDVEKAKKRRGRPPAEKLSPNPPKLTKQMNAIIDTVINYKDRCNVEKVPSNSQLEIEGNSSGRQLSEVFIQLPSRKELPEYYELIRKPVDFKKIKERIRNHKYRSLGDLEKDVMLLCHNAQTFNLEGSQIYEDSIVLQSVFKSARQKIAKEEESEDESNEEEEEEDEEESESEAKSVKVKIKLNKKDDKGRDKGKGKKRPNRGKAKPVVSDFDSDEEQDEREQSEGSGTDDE

[17] = P. falciparum ATP4 D1247Y mutant growth inhibitors, dose response, NITD609-resistant line, SYBR Green, dry powder (AID 1159571); assay type: functional, cell-based;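 note: parasites synchronized at ring stage by sorbitol before testing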
[18] = P. falciparum Dd2 growth inhibitors, dose response, SYBR Green, dry powder samples (AID 1159566); assay type: functional, cell-based;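 note: potency for growth inhibition with lower SYBR green DNA signal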
[19] = P. falciparum Dd2 growth inhibitors, dose response, SYBR Green, cherry-picked samples (AID 1159567); assay type: functional, cell-based
[20] = P. falciparum 3D7-ScDHODH growth inhibitors, dose response, SYBR Green, dry powder samples (AID 1159570); assay type: functional, cell-based;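 note: parasite growth measured after 72 hours of compound exposure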
[21] = Dose-response inhibition of insulin secretion in a rat insulinoma line at 5 mM glucose (AID 1117331); assay type: functional, cell-based; settings: INS-1E
[22] = ADAM10 inhibitors, peptide cleavage, dose response, biochemical, QFRET (AID 743254);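 note: ADAM10 enzyme with the DM2 quenched FRET peptide as substrate; EDANS fluorescence gain as the protease cuts the substrate; inhibitor potency against ADAM10 proteolytic activity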
[23] = molecular target: T3, Disintegrin and metalloproteinase domain-containing protein 17; assay: ADAM17 protease inhibitors, dose response, counter-screen for ADAM10 exosite inhibitor project, biochemical, quenched FRET substrate (AID 743253)

SMILES: CCc1cc(-c2nnn(CCC3COCCO3)c2CC)ccc1-c1cn(Cc2ccc3ccccc3c2)nn1 (stereo not given)
IC50 [1]: 10 µM (inactive)

SMILES: CCC(=O)N1CCN(c2ccc(Cl)cc2NC(=O)c2ccc([N+](=O)[O-])o2)CC1
AC50 [4]: 29.4 µM (active)
AC50 [5]: 12.4 µM (active)

SMILES: CCOc1cc(C2NN=C(c3ccc(C)cc3)S2)ccc1O (stereo not given)
CC50 [6]: 100 µM (active)
AC50 [7]: > 52 µM (inactive)
IC50 [2]: 112 µM (active)

SMILES: O=c1c2ccccc2oc2ccc(NCCCn3ccnc3)cc12
AC50 [7]: > 52 µM (inactive)
EC50 [8]: 50.5 µM (active)
EC50 [9]: 55.2 µM (active)

SMILES: CN(C)CCNc1ccc(CO)c2sc3ccc(O)cc3c(=O)c12
CC50 [6]: 36.1 µM (active)
AC50 [10]: 1.82 µM (active)
IC50 [2]: 20.2 µM (active)
AC50 (Paired box protein Pax-8): 5.72 µM (active)
IC50 [11]: > 43.8 µM (inactive)

SMILES: Clc1ccc2c(c1)-c1ccccc1C1=NCCN12
EC50 (HEK293 [13]): > 59.5 µM (inactive)
EC50 (HEK293 [14]): > 59.5 µM (inactive)
IC50 [11]: > 43.8 µM (inactive)
EC50 [15]: > 91.3 µM (inactive)
EC50 [16]: 4.65 µM (active)

SMILES: COc1ccc2c3c([nH]c2c1)[C@H](CO)N(C(=O)C1CCOCC1)CC31CCN(Cc2nccs2)CC1
AC50 [17]: 0.384 µM (active)
AC50 [18]: 0.467 µM (active)
AC50 [19]: 2.43 µM (active)
AC50 [20]: 0.387 µM (active)

SMILES: COc1ccc(Cl)cc1C(=O)NCCc1ccc(S(=O)(=O)NC(=O)NC2CCCCC2)cc1 [GLYBURIDE]
IC50 [21]: 0.00808 µM (active)

SMILES: CCn1nc(C(=O)OC(C(=O)c2c[nH]c3ccccc23)c2ccccc2)c2ccccc2c1=O (stereo not given)
IC50 [22]: > 69.5 µM (inactive)
IC50 [23]: > 69.5 µM (inactive)

SMILES: OC(c1ccccc1)(c1nc(-c2ccc(Cl)cc2)cs1)C(F)(F)F (stereo not given)
IC50 [22]: 13.9 µM (inactive)
IC50 [23]: > 69.5 µM (inactive)

Now from value to compound:

IC50 (Protein Tat): 30.8 µM (inconclusive)
IC50 [2]: 26.9 µM (active)
SMILES: CC1CCCC(/C=N/c2ccc(O)cc2)=C1O (stereo not given)

EC50 (Mucolipin-3): 2.76 µM (active)
IC50 [3]: > 69.5 µM (inactive)
EC50 (Ion channel NompC): > 29.9 µM (not active)
SMILES: C=C(C)CN1CCN(S(=O)(=O)c2ccc(C)c(N(C)S(=O)(=O)c3ccc(C)cc3)c2C)CC1

IC50 [12]: 0.0521 µM (active)
SMILES: COc1cccc(S(=O)(=O)N2CCN(C(=O)/C=C/c3ccc(F)cc3)CC2)c1

IC50 [12]: 0.0287 µM (active)
SMILES: O=C(/C=C/c1ccc(Br)cc1)N1CCN(C(=O)c2cccc(B(O)O)c2)CC1
